Publication PMC7794297

Key:
[1] = Spermine-templated DCL of building blocks 1-4; details: spermine DCL of 1-4
Description: Building blocks 2 and 3 equipped with carboxylate moieties to establish interactions with the protonated amine groups of the spermine were allowed to equilibrate at pH 7.8 and 6 °C (Fig. 8a). As expected in our control experiment, the major component in the absence of spermine was the linear tetramer (2)2(3)2. After the addition of spermine, the linear tetramer “decomposed” in order to form mainly the cyclic tetramer of (2)4, and the (3)2 dimer (Fig. 8a). As it was reported, several studies determined that the spermine was threaded through the macrocycle fixing the configuration to a highly symmetric stereoisomer of (2)4[36]. […] The precise composition of the DCL (with and without spermine), was assessed by measuring the relative peak area (RPA). Indeed, the normalized change of RPA was used to quantify the spermine influence in the outcome (Supplementary Fig. 42)[46]. The same template (spermine) was tested in our reference DCL of four building blocks (1–4) in the absence and presence of Secox (Fig. 8b). […] Additionally, two different templates were tested to confirm the absence of conflict between selenocystine and the templating effect. Spermidine and NADPH were introduced in our 4 building blocks DCL (1–4) in the absence and presence of Secox, leading to the amplification of different species and getting the same results as the non-catalyzed DCLs (Supplementary Figs. 44, 45, Supplementary Tables 7–10, and Supplementary Methods).
The mixture was stabilized in 96 h. […] The mixture was stabilized after 24 h. […] It was stabilized in 24 h. […] DCL was equilibrated in 96 h. DCLs were performed without stirring at 6 °C and analyzed by HPLC-MS.

[2] = Solubility under DCL conditions; format: physicochemical; details: aqueous buffer; basic pH and 2.5% (v/v) DMSO
From the text: reaction of compound 3 to (3)2 in the presence of selenocystine and DMSO. The accelerating role of DMSO wa s disca rded by running control experim ents containing up to 20% (v/v) DMSO, which is much larger than the amount of this co-solvent used in our standard conditions (2.5% (v/v) DMSO).
1) All the amino acids shown in Figure 3 have D-stereochemistry. I guess this is an error, please amend that. The same issue states for the structures in Figure 1.
Thank you. It has been corrected.
2) For every mention to % of a reagent, especially in the methods part, it should be clearly stated if this is volume, weight of molar percent, and with respect to what.
Thank you. It has been included.
3) Some of the disulfides formed in the libraries (i.e. (4)2) are expected to be poorly soluble in buffered water. […] When quantifying species in a mixture, solubility problems must be carefully […]
1.The main problem of the MS is that the authors only describe the rate enhancement by comparing if the reactions have reached equilibrium after 24 h or 96 h, as characterised by HPLC. It is shown for different ratios of the catalyst, but it doesn’t provide any quantitative measure of the rate acceleration. […] The authors should provide quantitative characterisation of the rate constants, starting with a simple homodimerisation of thiols, as it is done in ref. 15. […]

[3] = molecular target: bovine serum albumin (BSA) (Bos taurus, UniProt P02769); assay: BSA-directed DCL of building blocks 1-4; parameters: purchased Roche; key to NC of RPA: normalized change of relative peak area (RPA) vs blank DCL
Sequence of bovine serum albumin (BSA) (P02769 25-607): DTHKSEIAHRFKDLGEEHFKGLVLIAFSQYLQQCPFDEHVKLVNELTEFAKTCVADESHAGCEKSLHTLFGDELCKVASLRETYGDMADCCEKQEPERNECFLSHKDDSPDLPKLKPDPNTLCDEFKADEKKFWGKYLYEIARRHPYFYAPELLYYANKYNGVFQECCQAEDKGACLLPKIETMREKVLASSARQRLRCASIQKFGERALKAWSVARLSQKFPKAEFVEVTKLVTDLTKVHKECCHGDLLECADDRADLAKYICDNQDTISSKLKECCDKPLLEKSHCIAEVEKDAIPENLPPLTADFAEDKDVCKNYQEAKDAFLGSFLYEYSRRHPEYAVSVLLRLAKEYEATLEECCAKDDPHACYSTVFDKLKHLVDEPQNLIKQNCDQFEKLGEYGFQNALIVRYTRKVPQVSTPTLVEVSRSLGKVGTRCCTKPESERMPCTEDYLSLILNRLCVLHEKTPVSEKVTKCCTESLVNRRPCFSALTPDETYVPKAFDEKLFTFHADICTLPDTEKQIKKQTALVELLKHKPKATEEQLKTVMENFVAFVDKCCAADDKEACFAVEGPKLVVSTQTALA

[4] = molecular target: T1, glucose oxidase (GOx) (Aspergillus niger, UniProt P13006); assay: Tryptophan fluorescence emission binding experiments with GOx; parameters: purchased Sigma Aldrich; details: for Emmsion average / Normalized Fluorescence: Supplementary Figure 52 b
T1 sequence (P13006 17-605): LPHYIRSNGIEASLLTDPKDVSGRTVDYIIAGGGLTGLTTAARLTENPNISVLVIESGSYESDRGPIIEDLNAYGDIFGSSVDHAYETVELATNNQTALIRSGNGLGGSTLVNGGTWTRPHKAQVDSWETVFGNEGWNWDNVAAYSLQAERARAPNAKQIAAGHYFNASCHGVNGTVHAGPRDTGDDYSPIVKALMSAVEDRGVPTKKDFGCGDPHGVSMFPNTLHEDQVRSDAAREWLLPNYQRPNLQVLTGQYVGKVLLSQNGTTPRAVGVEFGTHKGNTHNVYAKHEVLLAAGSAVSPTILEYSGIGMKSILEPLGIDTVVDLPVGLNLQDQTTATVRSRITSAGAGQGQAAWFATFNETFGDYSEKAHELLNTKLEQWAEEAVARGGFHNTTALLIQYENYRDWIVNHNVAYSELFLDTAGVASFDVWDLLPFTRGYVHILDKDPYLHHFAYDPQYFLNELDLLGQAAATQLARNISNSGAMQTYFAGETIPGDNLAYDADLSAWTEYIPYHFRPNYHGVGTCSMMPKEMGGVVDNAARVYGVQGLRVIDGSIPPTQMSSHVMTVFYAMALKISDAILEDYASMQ

[5] = molecular target: T1, glucose oxidase (GOx); assay: GOx activity assay, glucose oxidase-horseradish peroxidase coupled system with o-dianisidine; format: biochemical; parameters: purchased Sigma Aldrich; details: for 1/Vo: Lineweaver-Burk;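 on GOx activity: GOx activity followed by o-dianisidine absorbance at 500 nm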
[6] = Spermidine-templated DCL of building blocks 1-4;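 further: Spermidine-templated dynamic combinatorial library, normalized change of RPA compared between Secox-free and Secox-containing libraries, DCC runs done in triplicate, values given as mean ± SD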

For `c1ccc(SSc2ccccc2)cc1` [(4)2], the “Normalized Change of RPA (NC)” value ([1]; 0% Secox) was 0,59, the “Normalized Change of RPA (NC)” value ([1]; 5% Secox) was 0,53 and the solubility [2] was ≤ 2000 µM. For the same molecule, the “amplification in the BSA-templated DCL” value ([3]; GOx replaced by BSA) was “did not amplify”, the “NC of RPA” value ([3]; blank vs BSA-DCL, BSA 57 µM, Secox 5% mol, 24 h) was 0,02 and the Emmsion average ([4]; [(4)2] 40 μM) was 2487781. The “Normalized Fluorescence” value ([4]; [(4)2] 40 μM) was 0.09492, the Emmsion average ([4]; [(4)2] 80 μM) was 2153387 and the “Normalized Fluorescence” value ([4]; [(4)2] 80 μM) was 0.2166. The Emmsion average ([4]; [(4)2] 400 μM) was 1756334, the “Normalized Fluorescence” value ([4]; [(4)2] 400 μM) was 0.361 and the Emmsion average ([4]; [(4)2] 2000 μM) was 1449655. The “Normalized Fluorescence” value ([4]; [(4)2] 2000 μM) was 0.4726, the Emmsion average ([4]; [(4)2] 4000 μM) was 1064446 and the “Normalized Fluorescence” value ([4]; [(4)2] 4000 μM) was 0.6127. The Emmsion average ([4]; [(4)2] 8000 μM) was 516610, the “Normalized Fluorescence” value ([4]; [(4)2] 8000 μM) was 0.8121 and the Emmsion average ([4]; [(4)2] 16000 μM) was 236911. The “Normalized Fluorescence” value ([4]; [(4)2] 16000 μM) was 0.9138, the Kd ([4]; apparent dissociation constant, GOx 0.8 µM, Tris pH 7.8, 5% DMSO, 10 °C, read-out: Kd') was 110000 ± 10000 nM and the “GOx Activity” value ([5]; IC50 data, inhibitor 1.4 nM, glucose 10 mM) was 0.07285 min⁻¹. The “GOx Activity” value ([5]; IC50 data, inhibitor 3.5 nM, glucose 10 mM) was 0.0762 min⁻¹, the “GOx Activity” value ([5]; IC50 data, inhibitor 7.0 nM, glucose 10 mM) was 0.0665 min⁻¹ and the “GOx Activity” value ([5]; IC50 data, inhibitor 14.0 nM, glucose 10 mM) was 0.0785 min⁻¹. The “GOx Activity” value ([5]; IC50 data, inhibitor 70.0 nM, glucose 10 mM) was 0.0871 min⁻¹, the “GOx Activity” value ([5]; IC50 data, inhibitor 140.0 nM, glucose 10 mM) was 0.08235 min⁻¹ and the “GOx Activity” value ([5]; IC50 data, inhibitor 700.0 nM, glucose 10 mM) was 0.0656 min⁻¹. The “GOx Activity” value ([5]; IC50 data, inhibitor 1400.0 nM, glucose 10 mM) was 0.0557 min⁻¹, the “GOx Activity” value ([5]; IC50 data, inhibitor 7000.0 nM, glucose 10 mM) was 0.0417 min⁻¹ and the “GOx Activity” value ([5]; IC50 data, inhibitor 140000.0 nM, glucose 10 mM) was 0.0376 min⁻¹. The “GOx Activity” value ([5]; Ki data, inhibitor 7,0·10^-7 M, [Glucose] 0.0002 M) was 0.0019 min⁻¹, the “GOx Activity” value ([5]; Ki data, inhibitor 7,0·10^-7 M, [Glucose] 0.0007 M) was 0.0067 min⁻¹ and the “GOx Activity” value ([5]; Ki data, inhibitor 7,0·10^-7 M, [Glucose] 0.0014 M) was 0.01145 min⁻¹. For the same molecule, the “GOx Activity” value ([5]; Ki data, inhibitor 7,0·10^-7 M, [Glucose] 0.0028 M) was 0.02218 min⁻¹, the “GOx Activity” value ([5]; Ki data, inhibitor 7,0·10^-7 M, [Glucose] 0.004 M) was 0.02548 min⁻¹ and the “GOx Activity” value ([5]; Ki data, inhibitor 7·10^-8 M, [Glucose] 0.0002 M) was 0.0021 min⁻¹. The “GOx Activity” value ([5]; Ki data, inhibitor 7·10^-8 M, [Glucose] 0.0007 M) was 0.01063 min⁻¹, the “GOx Activity” value ([5]; Ki data, inhibitor 7·10^-8 M, [Glucose] 0.0014 M) was 0.01978 min⁻¹ and the “GOx Activity” value ([5]; Ki data, inhibitor 7·10^-8 M, [Glucose] 0.0028 M) was 0.03193 min⁻¹. For the same molecule, the “GOx Activity” value ([5]; Ki data, inhibitor 7·10^-8 M, [Glucose] 0.004 M) was 0.0385 min⁻¹, the “GOx Activity” value ([5]; Ki data, inhibitor 14·10^-7 M, [Glucose] 0.0002 M) was 0.00175 min⁻¹ and the “GOx Activity” value ([5]; Ki data, inhibitor 14·10^-7 M, [Glucose] 0.0007 M) was 0.006225 min⁻¹. For the same molecule, the “GOx Activity” value ([5]; Ki data, inhibitor 14·10^-7 M, [Glucose] 0.0014 M) was 0.013 min⁻¹, the “GOx Activity” value ([5]; Ki data, inhibitor 14·10^-7 M, [Glucose] 0.0028 M) was 0.01805 min⁻¹ and the “GOx Activity” value ([5]; Ki data, inhibitor 14·10^-7 M, [Glucose] 0.004 M) was 0.02392 min⁻¹. The “GOx Activity” value ([5]; Ki data, inhibitor 14·10^-8 M, [Glucose] 0.0002 M) was 0.001875 min⁻¹, the “GOx Activity” value ([5]; Ki data, inhibitor 14·10^-8 M, [Glucose] 0.0007 M) was 0.008475 min⁻¹ and the “GOx Activity” value ([5]; Ki data, inhibitor 14·10^-8 M, [Glucose] 0.0014 M) was 0.0135 min⁻¹. The “GOx Activity” value ([5]; Ki data, inhibitor 14·10^-8 M, [Glucose] 0.0028 M) was 0.0304 min⁻¹, the “GOx Activity” value ([5]; Ki data, inhibitor 14·10^-8 M, [Glucose] 0.004 M) was 0.0395 min⁻¹ and the 1/Vo ([5]; inhibitor 0,7 µM, 1/[glucose] 250 M-1) was 41.8673 min. It also gave a 1/Vo ([5]; inhibitor 0,7 µM, 1/[glucose] 357 M-1) of 59.4498 min, a 1/Vo ([5]; inhibitor 0,7 µM, 1/[glucose] 714 M-1) of 110.461 min and a 1/Vo ([5]; inhibitor 0,7 µM, 1/[glucose] 1430 M-1) of 185.984 min. The 1/Vo ([5]; inhibitor 0,7 µM, 1/[glucose] 5000 M-1) was 603.288 min, the 1/Vo ([5]; inhibitor 1,4 µM, 1/[glucose] 250 M-1) was 56.7644 min and the 1/Vo ([5]; inhibitor 1,4 µM, 1/[glucose] 357 M-1) was 75.4986 min. It also gave a 1/Vo ([5]; inhibitor 1,4 µM, 1/[glucose] 714 M-1) of 81.9727 min, a 1/Vo ([5]; inhibitor 1,4 µM, 1/[glucose] 1430 M-1) of 178.284 min and a 1/Vo ([5]; inhibitor 1,4 µM, 1/[glucose] 5000 M-1) of 687.292 min. For the same molecule, the “Inhibitor Type” value ([5]; Lineweaver–Burk plots) was “non-competitive”, the IC50 ([5]; [Glucose] 10 mM, 37 °C, sodium acetate buffer pH 5.1) was 1800 ± 100 nM and the Ki ([5]; non-competitive inhibition model, 37 °C, sodium acetate buffer pH 5.1) was 1700 ± 200 nM. The “Normalized Change of RPA (NC)” value ([6]; 0% Secox) was -0,49 and the “Normalized Change of RPA (NC)” value ([6]; 5% Secox) was -0,50.
